The text below walks through data of patent US10570179B2, “Substituted urea depsipeptide analogs as activators of the CLPP endopeptidase” (priority 2016, dated 2020).

≈ marks a conversion by molar mass, not a printed value. Where two headings read alike, the source gives them in different places. Numbered stars: 1 amine (or outer) side, 2 acyl side, 3 side chain; on linkers, the order of the positions; unused ones are H or OH. Bridge positions count the residues as written; N and C are the ends. Square brackets hold non-standard residues; d marks the D form. Peptide text beside a SMILES is read from it. * marks the point of attachment. Phe(3-CF3) = N[C@@H](Cc1cccc(C(F)(F)F)c1)C(=O)O; Piperazine(2S-CO,4-Me) = CN1CCN[C@H](C(=O)O)C1; NH(1,3-benzodioxol-5-yl) = c1cc2c(cc1N*)OCO2; Phe(3-Me) = Cc1cccc(C[C@H](N)C(=O)O)c1; NH(4-Cl-2-F-phenyl) = Fc1cc(Cl)ccc1N*; Pro(4R-Me) = C[C@H]1CN[C@H](C(=O)O)C1; NH(4-Et-phenyl) = CCc1ccc(N*)cc1; NH(4-Me-phenyl) = Cc1ccc(N*)cc1; CO = O=C([*:1])[*:2]; X2 = Fc1cc(N*)ccc1Cl

Series [1] is described as follows: Microsomal metabolic stability. It is filed as in vitro ADME, mouse. Here is the method: Compounds were initially prepared by dissolving them into DMSO at a final concentration of 10 mM. NADPH regenerating solutions A and B and mouse liver microsomes (CD-1) were obtained from BD Gentest (Woburn, Mass.). Ninety-six well deep well plates were obtained from MidWest Scientific Inc (Valley Park, Mo.).
Sample preparation for microsomal stability was modified from methods of Di, L., et al., Int J Pharm. 2005 Jun. 13; 297(1-2):110-9. A set of incubation times of 0, 15, 30, 60, 120, and 240 minutes were used. Mouse liver microsomal solutions were prepared by adding 58 μL of concentrated human or mouse liver microsomes (20 mg/mL protein concentration) to 1.756 mL of 0.1 M potassium phosphate buffer (pH 7.4) and 5 μL of 0.5 M EDTA to make a 0.6381 mg/mL (protein) microsomal solution. NADPH regenerating agent contained 113 μL of NADPH A, 23 μL of NADPH B, and 315 μL of 0.1 M potassium phosphate buffer (pH 7.4). The diluted test compound solutions (2 μL) were each added directly to a 1.79 mL of liver microsomal solution. This solution was mixed and 90 μL was transferred to 6 time points plates (each in triplicate wells). For the time 0 plate, 225 μL of cold acetonitrile with internal standard ([…] warfarin) was added to each well, followed by addition of NADPH regenerating agent (22.5 μL) and no incubation. For other five time points' plate, NADPH regenerating agent (22.5 μL) was added to each well to initiate the reaction. The plates were incubated at 37° C. for the required time, followed by quenching of the reaction by adding 225 μL of cold acetonitrile with internal standard (4 μg/ml warfarin). All of the plates were sealed and mixed well at 600 rpm for 10 minutes followed by centrifugation at 4000 rpm for 20 minutes. The supernatants (120 μL) were transferred to analytical plates for analysis by LCMS. LCMS conditions were described in the materials and instrumentation section above. The metabolic stability is evaluated via the half-life from least-squares fit of the multiple time points based on first-order kinetics.

A short description of the next series: Solubility determination. The format is physicochemical. To be noted: for solubility kinetic at 10 min: 22 °C, aqueous buffer, kinetic from dmso stock. How it is done:
Test compounds were synthesized and supplied by the Department of Chemical Biology and Therapeutics at St. Jude Children's Research Hospital (Memphis, Tenn.). LC-MS chromasolv grade acetonitrile (ACN) was purchased from Fisher Scientific (Loughborough, UK). LC-MS chromasolv grade formic acid was obtained from Sigma-Aldrich (St. Louis, Mo.). Milli-Q water as an ultrapure laboratory grade water was used in aqueous mobile phase.
Chromatographic separation was performed on an Acquity UPLC BEH C18 1.7 μm, 2.1×50 mm column (Waters Corporation, Milford, Mass.) using an Acquity ultra performance liquid chromatography system. The total flow rate was 0.9 mL/min. The sample injection volume was 10 μL. The UPLC column was maintained at 60° C. and the gradient program started at 90% A (0.1% formic acid in MilliQ H2O), changed to 70% A over 0.2 min, to 95% B (0.1% formic acid in ACN) over 1.4 minutes, held for 0.35 minutes, then to 90% A over 0.05 minutes.
Mass data was acquired with an Acquity SQD Mass Spectrometer. The mass spectrometer was operated in positive-ion mode with electrospray ionization. The conditions were as follows: capillary voltage 3.5 kV, cone voltage 30 V, source temperature 150° C., desolvation temperature 350° C., desolvation gas 500 L/hr, cone gas 25 L/hr. Data were acquired using Masslynx v. 4.1 and analyzed using the Quanlynx software suite. A full scan range from m/z=100-1000 in 0.2 s was used to acquire MS data. Both UV and Single ion recording mass spectrometry were used to determine the quantification of the samples.
Stock solutions were prepared by dissolving compounds into DMSO to yield a concentration of 10 mM. Stock solutions were stored at room temperature.
Calibration standards were made by adding stock solutions to DMSO for final concentrations of compounds at concentration of 100, 25, 6.25, 1.563, 0.391 and 0.098 μM.
Solubility test samples were made by adding stock solutions to 200 μL, of DPBS for final concentrations of compounds at 100 μM in a 96-well analytical plate (300 μL, maximum volume in each well). Samples were tested in triplicates. The plate was sealed, shaken at 600 rpm for 10 minutes, and then was centrifuged at 4000 rpm for 20 min at 22° C. 100 μL, of the supernatant was transferred to a new analytical 96-well plate and 10 μL, was injected onto the LCMS system.
Two calibration curves for solubility test samples were analyzed during the quantitation process. The linear regression of test compound peak areas was weighted by 1/x^2. […] Coefficient of determination (R^2) was used to evaluate the linearity of each calibration curve.

A short description of series [2]: Plasma stability assay. The format is in vitro ADME, human. How it is done:
(§1) The plasma stability property of early drug discovery compounds can influence the in vivo efficacy of the test compounds/drugs. Human and/or mouse plasma degradation is determined using multiple time points to monitor the rate of disappearance of the parent compound during incubation.
(§2) Sample preparation for plasma stability was modified from Di et al. (2005) Int. J. Pharm. 297(1-2): 110-119. A set of incubation times of 0, 3, 24, and 48 hour were used. DMSO stock solutions of test compounds were prepared at 10 mM concentration. 1.8 μL of each test compound was each added directly to 1.8 mL of human/mouse plasma to get the final concentration of 10 μM. This compound/matrix was mixed and 70 μL was transferred to 8 time points plates (each in triplicate wells). For the Time 0 plate, 210 μL of cold acetonitrile with internal standard (4 μg/mL warfarin) was added to each well and no incubation needed. For other seven time points' plate, the plate was incubated at 37° C. for required time, followed by quenching of the reaction by adding 210 μL of cold acetonitrile with internal standard (4 μg/ml warfarin) to each well. All of the plates were sealed and mixed well at 600 rpm for 10 min and were centrifuged at 4000 rpm for 20 min. The supernatants (120 μL) were transferred to analytical plates for analysis by LCMS. Conditions for Waters ACQUITY-UPLC-MS-UV system was described separately. The plasma stability was evaluated via the half-life from least-squares fit of the multiple time points based on first-order kinetics.

A short description of series [3]: Plasma stability assay. It is filed as in vitro ADME, mouse. How it is done: as §1, §2

Take `Cc1cccc(C[C@H](NC(=O)Nc2ccc(Cl)c(F)c2)C(=O)N[C@H]2COC(=O)[C@@H]3C[C@@H](C)CN3C(=O)[C@H](C)NC(=O)[C@@H]3CN(C)CCN3C(=O)[C@@H]3CCCN3C2=O)c1` [Compound 14, (S)-2-(3-(4-CHLORO-3-FLUOROPHENYL)UREIDO)-3-(M-TOLYL)-N-((6AS,12S,15AS,17R,21S,23AS)-2,17,21-TRIMETHYL-6,11,15,20,23-PENTAOXOOCTADECAHYDRO-2H,6H,11H,15H-PYRAZINO[2,1-I]DIPYRROLO[2,1-C:2′,1′-L][1]OXA[4,7,10,13]TETRAAZACYCLOHEXADECIN-12-YL)PROPANAMIDE] ({X2-CO}-[Phe(3-Me)]SP[Piperazine(2S-CO,4-Me)]A[Pro(4R-Me)]; ester 2-C): the “Mouse” value in series [1] (CD-1, mouse, pH 7.4) is 3.15 ± 0.26 h; in “Plasma stability assay [3]” (mouse, 10 μM), 9.55 ± 0.8 h. In addition, the “μsol (μM)” value in the series “Solubility determination” is 43.6 ± 1.8 µM. Also, in the series “Solubility determination”, the solubility kinetic at 10 min was determined as 39.3 ± 1.9 µM (≈ 32.4 µg/mL). Besides, the “Human” value in “Plasma stability assay [2]” (human, 10 μM) is 97.65 ± 17.0 h.
Take `Cc1ccc(NC(=O)N[C@@H](Cc2cccc(C)c2)C(=O)N[C@H]2COC(=O)[C@@H]3C[C@@H](C)CN3C(=O)[C@H](C)NC(=O)[C@@H]3CN(C)CCN3C(=O)[C@@H]3CCCN3C2=O)cc1` [Compound 15, (S)-3-(M-TOLYL)-2-(3-(P-TOLYL)UREIDO)-N-((6AS,12S,15AS,17R,21S,23AS)-2,17,21-TRIMETHYL-6,11,15,20,23-PENTAOXOOCTADECAHYDRO-2H,6H,11H,15H-PYRAZINO[2,1-I]DIPYRROLO[2,1-C:2′,1′-L][1]OXA[4,7,10,13]TETRAAZACYCLOHEXADECIN-12-YL)PROPANAMIDE] ({NH(4-Me-phenyl)-CO}-[Phe(3-Me)]SP[Piperazine(2S-CO,4-Me)]A[Pro(4R-Me)]; ester 2-C): the “Mouse” value in series [1] (microsomal metabolic stability half-life, mouse liver microsomes) was 2.28 ± 0.16 h; in the series “Plasma stability assay [3]” (plasma stability half-life, mouse plasma, 37° C.), 5.95 ± 0.6 h. In addition, in the series “Solubility determination” (solubility in DPBS, 100 μM test samples, LCMS, read-out: LCMS), the solubility kinetic at 10 min worked out at 57.2 ± 1.1 µM (≈ 45 µg/mL). The “μsol (μM)” value in the series “Solubility determination” (solubility) came out at 25.1 ± 1.7 µM. Also, the “Human” value in the series “Plasma stability assay [2]” (plasma stability half-life, human plasma, 37° C.) is over 50 h.
With `CCc1ccc(NC(=O)N[C@@H](Cc2cccc(C)c2)C(=O)N[C@H]2COC(=O)[C@@H]3C[C@@H](C)CN3C(=O)[C@H](C)NC(=O)[C@@H]3CN(C)CCN3C(=O)[C@@H]3CCCN3C2=O)cc1` [Compound 16, (S)-2-(3-(4-ETHYLPHENYL)UREIDO)-3-(M-TOLYL)-N-((6AS,12S,15AS,17R,21S,23AS)-2,17,21-TRIMETHYL-6,11,15,20,23-PENTAOXOOCTADECAHYDRO-2H,6H,11H,15H-PYRAZINO[2,1-I]DIPYRROLO[2,1-C:2′,1′-L][1]OXA[4,7,10,13]TETRAAZACYCLOHEXADECIN-12-YL)PROPANAMIDE] ({NH(4-Et-phenyl)-CO}-[Phe(3-Me)]SP[Piperazine(2S-CO,4-Me)]A[Pro(4R-Me)]; ester 2-C), the “Mouse” value in series [1] (CD-1, mouse, pH 7.4) is 1.80 ± 0.09 h. In addition, in “Solubility determination”, the “μsol (μM)” value stood at 47.4 ± 5.7 µM and the solubility kinetic at 10 min amounted to 53.2 ± 6.5 µM (≈ 42.6 µg/mL). Further, in the series “Plasma stability assay [2]” (human, 10 μM), the “Human” value is over 50 h. Further, in “Plasma stability assay [3]” (mouse, 10 μM), the “Mouse” value is 6.86 ± 0.7 h.
As for `Cc1cccc(C[C@H](NC(=O)Nc2ccc3c(c2)OCO3)C(=O)N[C@H]2COC(=O)[C@@H]3C[C@@H](C)CN3C(=O)[C@H](C)NC(=O)[C@@H]3CN(C)CCN3C(=O)[C@@H]3CCCN3C2=O)c1` [Compound 17, (S)-2-(3-(BENZO[D][1,3]DIOXOL-5-YL)UREIDO)-3-(M-TOLYL)-N-((6AS,12S,15AS,17R,21S,23AS)-2,17,21-TRIMETHYL-6,11,15,20,23-PENTAOXOOCTADECAHYDRO-2H,6H,11H,15H-PYRAZINO[2,1-I]DIPYRROLO[2,1-C:2′,1′-L][1]OXA[4,7,10,13]TETRAAZACYCLOHEXADECIN-12-YL)PROPANAMIDE] ({NH(1,3-benzodioxol-5-yl)-CO}-[Phe(3-Me)]SP[Piperazine(2S-CO,4-Me)]A[Pro(4R-Me)]; ester 2-C), the “Mouse” value in series [1] (CD-1, mouse, pH 7.4) came to 4.83 ± 0.46 h. For the same molecule, in “Solubility determination”, the “μsol (μM)” value stood at 71.1 ± 0.7 µM and the solubility kinetic at 10 min turned out to be 64.6 ± 2 µM (≈ 52.8 µg/mL). Besides, in the series “Plasma stability assay [2]” (human, 10 μM), the “Human” value came to 51.18 ± 6.0 h. The “Mouse” value in the series “Plasma stability assay [3]” (mouse, 10 μM) was 6.46 ± 0.4 h.
Taken in the same sequence, the figures for `C[C@@H]1C[C@H]2C(=O)OC[C@H](NC(=O)[C@H](Cc3cccc(C(F)(F)F)c3)NC(=O)Nc3ccc(Cl)cc3F)C(=O)N3CCC[C@H]3C(=O)N3CCN(C)C[C@H]3C(=O)N[C@@H](C)C(=O)N2C1` [Compound 18, (S)-2-(3-(4-CHLORO-2-FLUOROPHENYL)UREIDO)-3-(3-(TRIFLUOROMETHYL)PHENYL)-N-((6AS,12S,15AS,17R,21S,23AS)-2,17,21-TRIMETHYL-6,11,15,20,23-PENTAOXOOCTADECAHYDRO-2H,6H,11H,15H-PYRAZINO[2,1-I]DIPYRROLO[2,1-C:2′,1′-L][1]OXA[4,7,10,13]TETRAAZACYCLOHEXADECIN-12-YL)PROPANAMIDE] ({NH(4-Cl-2-F-phenyl)-CO}-[Phe(3-CF3)]SP[Piperazine(2S-CO,4-Me)]A[Pro(4R-Me)]; ester 2-C) were 1.88 ± 0.12 h, 22.7 ± 0.8 µM, 22.6 ± 2.1 µM (≈ 19.9 µg/mL), 46.62 h and 66.31 h.
